Values joined by “and” are separate entries in the source; they are usually repeats but may differ in a detail not shown here. Identical values can stand only once.
Key:
[1] = tested on: methicillin-susceptible S. aureus ATCC 49775; experiment: Time-kill assays (microdilution and 10 ml macrodilution), Example 4; type: cell-based, Staphylococcus aureus
Experimental: Bactericidal activity in macrodilution assays was identified as a 3 log10 decrease from the initial inoculum size. Bacteria were cultured overnight at 37° C. on SBA. Colonies were suspended in broth and the turbidity was adjusted to a 0.5 McFarland standard to obtain a bacterial suspension of […]. Bacterial suspensions were incubated at 37° C. with shaking. Aliquots were removed at 0, 1, 2, 4, 8, 12, and 24 h after antimicrobial addition, diluted, plated onto SBA and incubated for 48 h at 37° C. for viable count determination. Turbidimetric growth curves for S. aureus were obtained for Microtiter plate assays by monitoring optical density changes using a Bio-Rad Benchmark Plus microplate spectrophotometer at 600 nm. Optical densities were measured at 0, 1, 2, 4, 8, 12, and 24 h after antimicrobial addition.

S. pneumoniae strain D39 [2] = experiment: Macro-broth dilution time kill studies; type: cell-based, Streptococcus pneumoniae
Experimental: Bacterial suspensions and working antibiotic stocks were prepared as described above. [For preparing macro-broth dilutions, 20 mL tubes were filled each with 9 mL of 4% LHB:CAMHB. 9 mL of a working antimicrobial stock was diluted 1:2 when added to one of the tubes, and then serial diluted down from a high to low concentration of antimicrobial. 1 mL of S. pneumoniae bacterial suspension was added to the appropriate tubes, including the positive control. […] At every 2-3 h during the first 12 h of growth and then at 24 h and 48 h, 50 μL of each bacterial suspension was spread plated onto HBA and incubated at 37° C. with 5% CO2 for 16-24 h.]
Table 17 below indicates the concentrations used for each antimicrobial. Cultures were incubated at 37° C. in 5% CO2 with gentle manual tilting every 10 min for the first 12 h. Viable counts from 50 μL aliquots of each concentration were read following incubation at 37° C. in 5% CO2 for 24 h. The pH of each sample was measured at specific time points using pH indicator strips. Confluent growth was defined when more than 1000 colonies were counted per plate. A bactericidal effect was defined as a 1000 fold reduction (99.9%) of the original cell suspension determined at 24 h for each concentration.

S. pneumoniae strain D39 [3] = experiment: MBC time kill studies (relative MBC at time points); type: cell-based, Streptococcus pneumoniae; details: within 5 h
Text: MBC kill kinetics assays involved the preparation of three 96 well microtitre trays.

[4] = tested on: ATP release from S. aureus ATCC 29213; experiment: ATP release assay (CellTiter-Glo); type: cell-based, Staphylococcus aureus; details: at the MIC ([…] μg/ml); 30 min exposure
Experimental: The CellTiter-Glo Luminescent Cell Viability Assay (Promega) was utilized to measure the leakage of ATP from bacteria. […] The negative control received 2% DMSO, which represented the final DMSO concentration in each assay. After a 30 min exposure to drug, cells were sedimented by centrifugation and the supernatant was analyzed for the presence of ATP. Results were expressed as ATP concentration released to the medium (μM).

[5] = Visual analysis of solubility in diluents and media, Example 5; type: physicochemical
[6] = Bioassay ranking of the analogues tested; details: M + R (MRSA and VRE combined)
[7] = tested on: non-MRSA S. aureus MK01 and KC01; experiment: MBC (CLSI methodology), Example 8; type: cell-based, Staphylococcus aureus
S. aureus KC01 = experiment: Kill kinetics assay, Example 8; type: cell-based, Staphylococcus aureus
Experimental: S. aureus KC01 and E. faecalis USA01, not determined to be MRSA or VRE, respectively, were grown overnight on Columbia SBA at 37° C. A few colonies of bacteria were then suspended in CAMHB (cation-adjusted Mueller Hinton broth) and adjusted to OD600 of 0.08 to 0.10. The bacterial suspension was diluted 1:10. […] The tubes were incubated at 37° C., with constant shaking. In order to determine the number of viable bacteria present at various time points, a 100 μL aliquot was removed from each tube and diluted. Then, 100 μL of each dilution were spread onto colony count agar, in duplicate, and incubated for 48 h at 37° C. After 24 h the numbers of colonies present on each plate were counted and therefore the number of viable bacteria present in the original suspension enumerated. Plates were re-checked after 48 hours.

[8] = tested on: D39 cell membrane ultra-structure; experiment: Transmission electron microscopy morphometric analysis; type: cell-based, Streptococcus pneumoniae
Experimental: Morphological appearance and morphometric analysis of the cell membrane was determined using transmission electron microscopy (TEM). Bacterial suspensions and 10 mL cultures of […] were prepared as before. […] Critical time points for TEM work were determined by analysing trends in the growth curves produced from the kill kinetics studies. […] Samples were fixed using modified protocols defined by a previous study examining cell wall ultrastructure of S. pneumoniae ([…]. et al. 2005. Infect Immun 73:4653-4667). […] The samples were then embedded in fresh LR White resin and incubated at 50° C. for 48 h. Sections were cut to 1 μm using a glass knife, stained with Toluidene Blue and viewed under a light microcrope at 400× to identify the presence of stained pneumococci. At least four ultra-thin sections were then cut to 90 nm using a diamond knife and placed on matrix grids, one section per grid. […] Stained sections were then placed on grids and viewed between 25000× and 130000× on a Philips CM100 Transmission Electron Microscope. Images were obtained at 130000× magnification and analysed using analySIS [Olympus Soft Imaging Systems].

Question: What does the source list for `N=C(N/N=C/c1ccc(Cl)cc1)N/N=C/c1ccc(Cl)cc1` [NCL812, 1,3-bis[(E)-(4-chlorophenyl)methyleneamino]guanidine]?
Answer: bacterial growth, turbidimetric growth curve ([1]; ATCC 49775, 1× and 4× the MIC, microdilution, up to 24 h): no visible bacterial growth; remained bactericidal until (then regrowth) ([1]; ATCC 49775, 10 mL macrodilution, 1× and 4× the MIC): 8 to 12 h; bacterial regrowth observed at, after antimicrobial addition ([1]; ATCC 49775 time-kill): 12 h; growth in viable counts (S. pneumoniae strain D39 [2]; 2 μg/mL NCL812): Consistent confluent growth; time post-exposure at which compound appeared to be inactivated (increased growth after) (S. pneumoniae strain D39 [2]; NCL812 at 4 μg/mL and 8 μg/mL): 11 h; time to eliminate bacterial growth (S. pneumoniae strain D39 [2]; between 16 μg/mL and 64 μg/mL NCL812): ≤ 8 h; decrease in MBC (S. pneumoniae strain D39 [3]): ~3 fold; maximal ATP release [4]: 0.33 µM; Visual analysis of solubility ([5]; Diluent CAMHB): Turbid; Visual analysis of solubility ([5]; Diluent DMSO): Transparent; Visual analysis of solubility ([5]; Diluent PBS): Precipitate; Visual analysis of solubility ([5]; Media 4% LHB:CAMHB): Turbid; Visual analysis of solubility ([5]; Media 10% horse serum-supplemented broth): Precipitate; M + R [6]: 2.375 µg/mL; NCL812 MBC test, growth on Sheep Blood Agar ([7]; S. aureus (KC01), 2 μg/ml): +; NCL812 MBC test, growth on Sheep Blood Agar ([7]; S. aureus (KC01), 4 μg/ml): + and 0; NCL812 MBC test, growth on Sheep Blood Agar ([7]; S. aureus (KC01), 8 μg/ml): + and 0; NCL812 MBC test, growth on Sheep Blood Agar ([7]; S. aureus (KC01), 16 μg/ml): 0; NCL812 MBC test, growth on Sheep Blood Agar ([7]; S. aureus (KC01), 32 μg/ml): 0; NCL812 MBC test, growth on Sheep Blood Agar ([7]; S. aureus (KC01), 64 μg/ml): 0; NCL812 MBC test, growth on Sheep Blood Agar ([7]; S. aureus (KC01), […]): 0; NCL812 MBC test, growth on Sheep Blood Agar ([7]; S. aureus (MK01), 2 μg/ml): 0; Number of Bacteria Growing after 24 hours per ml of sample ([7]; S. aureus (MK01), 2 μg/ml): 5 CFU/ml; NCL812 MBC test, growth on Sheep Blood Agar ([7]; S. aureus (MK01), 4 μg/ml): 0; NCL812 MBC test, growth on Sheep Blood Agar ([7]; S. aureus (MK01), 8 μg/ml): 0; NCL812 MBC test, growth on Sheep Blood Agar ([7]; S. aureus (MK01), 16 μg/ml): 0 (N) and 0; NCL812 MBC test, growth on Sheep Blood Agar ([7]; S. aureus (MK01), 32 μg/ml): 0 (N) and 0; NCL812 MBC test, growth on Sheep Blood Agar ([7]; S. aureus (MK01), 64 μg/ml): 0 (N) and 0; MBC test outcome ([7]; S. aureus MK01 and KC01, no growth, or growth only at 2 μg/ml): bactericidal; reduction in bacterial numbers from initial numbers (S. aureus KC01; 2 h): ≥ 2.5 log10; reduction in comparison to the control at the same time point (S. aureus KC01; 2 h): > 3 log10; reduction in bacterial numbers (S. aureus KC01; 6 h incubation): ≥ 2 log10; numbers of bacteria versus control (S. aureus KC01; after 24 h): not significantly different to the control; cell membrane thickness ([8]; D39 exposed to 16 μg/mL NCL812 for 6 h, untreated 4.35±0.24): 6.43±0.29 nm; width of periplasmic space ([8]; D39 treated with 16 μg/mL NCL812 for 6 h, untreated 3.91±0.14): 4.54±0.096 nm; Periplasmic space, Mean ± SEM ([8]; D39 treated with 16 μg/ml NCL812 for 6 h, n = 11, growth control 3.91 ± 0.14 nm): 4.54 ± 0.096 nm,; Cell membrane, Mean ± SEM ([8]; D39 treated with 16 μg/ml NCL812 for 6 h, n = 13, growth control 4.35 ± 0.24 nm): 6.43 ± 0.29 nm,
